Data: patent US20070128217A1 (priority 2003, published 2007)

What was measured:
[1] = tested on: antibodies in sera from SARS patients (sera 1a, 1b, 2, 6, 37, 62, London, SARS-yellow, SARS-green); format: binding, human; set-up: Binding of serum 6 to linear peptides of protein X1 of SARS-CoV Urbani / Binding of serum 37 to linear peptides of protein X1 of SARS-CoV Urbani / Binding of serum 6 to looped/cyclic peptide (PEPSCAN-ELISA) / Binding of serum 37 to looped/cyclic peptide (PEPSCAN-ELISA) / Binding of serum 37 to looped/cyclic peptides of protein X1 of SARS-CoV Urbani / Binding of serum 6 to linear peptides of protein X2 / Binding of serum 37 to linear peptides of protein X2 / Binding of serum 37 to looped/cyclic peptides of protein X2 of SARS-CoV Urbani / Binding of serum 6 to linear peptides of protein M of SARS-CoV Urbani / Binding of serum 37 to linear peptides of protein M of SARS-CoV Urbani / Binding of serum 6 to looped/cyclic peptides of protein M of SARS-CoV Urbani / Binding of serum 37 to looped/cyclic peptides of protein M of SARS-CoV Urbani / Binding of serum 6 to linear peptides of protein X3 of SARS-CoV Urbani / Binding of serum 37 to linear peptides of protein X3 of SARS-CoV Urbani / Binding of serum 37 to looped/cyclic peptides of protein X3 of SARS-CoV Urbani / Binding of serum 6 to linear peptides of protein X4 of SARS-CoV Urbani / Binding of serum 37 to linear peptides of protein X4 of SARS-CoV Urbani / Binding of serum 37 to looped/cyclic peptides of protein X4 of SARS-CoV Urbani / Binding of serum 6 to linear peptides of protein X5 of SARS-CoV Urbani / Binding of serum 37 to linear peptides of protein X5 of SARS-CoV Urbani / Binding of serum 37 to looped/cyclic peptides of protein X5 of SARS-CoV Urbani / Binding of serum 6 to linear peptides of protein N of SARS-CoV Urbani / Binding of serum 37 to linear peptides of protein N of SARS-CoV Urbani / Binding of serum 6 to linear peptide (PEPSCAN-ELISA) / Binding of serum 1a to looped/cyclic peptides of protein N of SARS-CoV Urbani / Binding of serum 1b to looped/cyclic peptides of protein N of SARS-CoV Urbani / Binding of serum 2 to looped/cyclic peptides of protein N of SARS-CoV Urbani / Binding of serum 6 to looped/cyclic peptides of protein N of SARS-CoV Urbani / Binding of serum 37 to looped/cyclic peptides of protein N of SARS-CoV Urbani / Binding of serum 62 to looped/cyclic peptides of protein N of SARS-CoV Urbani / Binding of serum London to looped/cyclic peptides of protein N of SARS-CoV Urbani / Binding of serum SARS-green to looped/cyclic peptides of protein N of SARS-CoV Urbani: unit not given here
[2] = tested on: control sera (pooled serum of ten healthy LUMC hospital workers; commercial negative donor pooled serum from the Dutch bloodbank); format: binding, human; set-up: Binding of Control serum LUMC to linear peptides / Binding of Control serum Blood-bank to linear peptides / Binding of Control serum LUMC to looped peptides / Binding of Control Serum Blood-Bank to Looped peptides / Binding of Control serum LUMC to linear peptides of the protein M of SARS-CoV Urbani / Binding of Control serum Blood-bank to linear peptides of the protein M of SARS-CoV Urbani / Binding of Control serum LUMC to looped peptides of the protein M of SARS-CoV Urbani / Binding of Control Serum Blood-Bank to Looped peptides of the protein M of SARS-CoV Urbani: unit not given here
[3] = tested on: rabbit serum obtained by immunizing a rabbit with the SARS-CoV strain Frankfurt 1; format: binding; set-up: Binding of a rabbit serum to linear peptides / Binding of a rabbit serum to looped peptides / Rabbit serum linear peptides / Rabbit serum looped peptides / Binding of a rabbit serum to linear peptides of protein N of SARS-CoV Urbani (Rabbit serum linear peptides) / Binding of a rabbit serum to looped/cyclic peptides of protein N of SARS-CoV Urbani (Rabbit serum looped peptides): unit not given here
[4] = tested on: recombinant human anti-SARS-CoV antibody 03-018; format: binding; set-up: Binding of antibody 03-018 to linear peptides of the N protein of SARS-CoV Urbani / Binding of antibody 03-018 to looped/cyclic peptides of the N protein of SARS-CoV Urbani: unit not given here

RATRRVRGGDGKMKE
Binding of serum 1a to linear peptides of protein N of SARS-CoV Urbani [1]: 0.2
Binding of serum 1a to looped/cyclic peptides of protein N of SARS-CoV Urbani [1]: 0.2
Binding of serum 1b to linear peptides of protein N of SARS-CoV Urbani [1]: 0.1
Binding of serum 1b to looped/cyclic peptides of protein N of SARS-CoV Urbani [1]: 0.1
Binding of serum 2 to linear peptides of protein N of SARS-CoV Urbani [1]: 0.4
Binding of serum 2 to looped/cyclic peptides of protein N of SARS-CoV Urbani [1]: 0.2
Binding of serum 6 to linear peptides of protein N of SARS-CoV Urbani [1]: 0.2
Binding of serum 6 to looped/cyclic peptides of protein N of SARS-CoV Urbani [1]: 0.1
Binding of serum 37 to linear peptides of protein N of SARS-CoV Urbani [1]: 0.8
Binding of serum 37 to looped/cyclic peptides of protein N of SARS-CoV Urbani [1]: 0.5
Binding of serum 62 to linear peptides of protein N of SARS-CoV Urbani [1]: 0.7
Binding of serum 62 to looped/cyclic peptides of protein N of SARS-CoV Urbani [1]: 0.2
Binding of serum London to linear peptides of protein N of SARS-CoV Urbani [1]: 0.5
Binding of serum London to looped/cyclic peptides of protein N of SARS-CoV Urbani [1]: 0.2
Binding of serum SARS-green to linear peptides of protein N of SARS-CoV Urbani [1]: 0.3
Binding of serum SARS-green to looped/cyclic peptides of protein N of SARS-CoV Urbani [1]: 0.0
Binding of serum SARS-yellow to linear peptides of protein N of SARS-CoV Urbani [1]: 0.6
Binding of serum SARS-yellow to looped/cyclic peptides of protein N of SARS-CoV Urbani [1]: 0.3
Binding of Control Serum Blood-Bank to Looped peptides [2]: 0.4
Binding of Control serum Blood-bank to linear peptides [2]: 0.8
Binding of Control serum LUMC to linear peptides [2]: 0.7
Binding of Control serum LUMC to looped peptides [2]: 0.3
Binding of a rabbit serum to linear peptides of protein N of SARS-CoV Urbani (Rabbit serum linear peptides) [3]: 0.2
Binding of a rabbit serum to looped/cyclic peptides of protein N of SARS-CoV Urbani (Rabbit serum looped peptides) [3]: 0.2
Binding of antibody 03-018 to linear peptides of the N protein of SARS-CoV Urbani [4]: 0.1
Binding of antibody 03-018 to looped/cyclic peptides of the N protein of SARS-CoV Urbani [4]: 0.2

RGGDGKMKELSPRWY
Binding of serum 1a to linear peptides of protein N of SARS-CoV Urbani [1]: 0.2
Binding of serum 1a to looped/cyclic peptides of protein N of SARS-CoV Urbani [1]: 0.3
Binding of serum 1b to linear peptides of protein N of SARS-CoV Urbani [1]: 0.1
Binding of serum 1b to looped/cyclic peptides of protein N of SARS-CoV Urbani [1]: 0.2
Binding of serum 2 to linear peptides of protein N of SARS-CoV Urbani [1]: 0.2
Binding of serum 2 to looped/cyclic peptides of protein N of SARS-CoV Urbani [1]: 0.4
Binding of serum 6 to linear peptides of protein N of SARS-CoV Urbani [1]: 0.2
Binding of serum 6 to looped/cyclic peptides of protein N of SARS-CoV Urbani [1]: 0.3
Binding of serum 37 to linear peptides of protein N of SARS-CoV Urbani [1]: 0.7
Binding of serum 37 to looped/cyclic peptides of protein N of SARS-CoV Urbani [1]: 0.5
Binding of serum 62 to linear peptides of protein N of SARS-CoV Urbani [1]: 0.6
Binding of serum 62 to looped/cyclic peptides of protein N of SARS-CoV Urbani [1]: 0.4
Binding of serum London to linear peptides of protein N of SARS-CoV Urbani [1]: 0.5
Binding of serum London to looped/cyclic peptides of protein N of SARS-CoV Urbani [1]: 0.4
Binding of serum SARS-green to linear peptides of protein N of SARS-CoV Urbani [1]: 0.3
Binding of serum SARS-green to looped/cyclic peptides of protein N of SARS-CoV Urbani [1]: 0.3
Binding of serum SARS-yellow to linear peptides of protein N of SARS-CoV Urbani [1]: 0.6
Binding of serum SARS-yellow to looped/cyclic peptides of protein N of SARS-CoV Urbani [1]: 0.4
Binding of Control Serum Blood-Bank to Looped peptides [2]: 0.6
Binding of Control serum Blood-bank to linear peptides [2]: 0.6
Binding of Control serum LUMC to linear peptides [2]: 0.6
Binding of Control serum LUMC to looped peptides [2]: 0.6
Binding of a rabbit serum to linear peptides of protein N of SARS-CoV Urbani (Rabbit serum linear peptides) [3]: 0.1
Binding of a rabbit serum to looped/cyclic peptides of protein N of SARS-CoV Urbani (Rabbit serum looped peptides) [3]: 0.4
Binding of antibody 03-018 to linear peptides of the N protein of SARS-CoV Urbani [4]: 0.1
Binding of antibody 03-018 to looped/cyclic peptides of the N protein of SARS-CoV Urbani [4]: 0.2
